Legend:
Src = Src (Homo sapiens, UniProt P12931); assay: Selectivity screen Src; assay type: biochemical; conditions: 1 µM inhibitor, mean
Procedure: (§1) For the in vitro kinase assay, JAK3 (5–20 mU diluted in 50 mM Tris pH 7.5, 0.1 mM EGTA, 0.05% β-mercaptoethanol, 1 mg/ml BSA) was assayed against PDKtide ([…]) in a final volume of 25.5 µl containing 50 mM Tris pH 7.5, 0.1 mM EGTA, 0.05% β-mercaptoethanol, 100 µM substrate peptide, 10 mM magnesium acetate and 0.02 mM [33P-γ-ATP] (50–1000 cpm/pmole) and incubated for 30 min at room temperature. Assays were started by the addition of the ATP and stopped by addition of 5 µl of 0.5 M (3%) orthophosphoric acid and then harvested onto P81 Unifilter plates with a wash buffer of 50 mM orthophosphoric acid. To determine the Km for ATP, assays were run using 1, 5, 10, 20, 50, 100, 200, 400, 500 μM ATP and Km derived by non-linear regression fitting to the Michaelis–Menten equation v = Vmax[S]/(Km + [S]). IC50 values for inhibitors via non-linear regression using a parameter model: Y = Bottom + (Top–Bottom)/(1 + (IC50/X)^HillSlope). Non-linear regression was carried out in Prism (version 8). In vitro selectivity screen was carried out as described previously.

MARK3 = MARK3 (Homo sapiens, UniProt P27448); assay: Selectivity screen MARK3; assay type: biochemical; conditions: 1 µM inhibitor, mean
Procedure: as §1

CAMK1 = CAMK1 (Homo sapiens, UniProt Q14012); assay: Selectivity screen CAMK1; assay type: biochemical; conditions: 1 µM inhibitor, mean
Procedure: as §1

TIE2 = TIE2 (Homo sapiens, UniProt Q02763); assay: Selectivity screen TIE2; assay type: biochemical; conditions: 1 µM inhibitor, mean
Procedure: as §1

IRR = IRR (Homo sapiens, UniProt P14616); assay: Selectivity screen IRR; assay type: biochemical; conditions: 1 µM inhibitor, mean
Procedure: as §1

CSK = CSK (Homo sapiens, UniProt P41240); assay: Selectivity screen CSK; assay type: biochemical; conditions: 1 µM inhibitor, mean
Procedure: as §1

TTBK1 = TTBK1 (Homo sapiens, UniProt Q5TCY1); assay: Selectivity screen TTBK1; assay type: biochemical; conditions: 1 µM inhibitor, mean
Procedure: as §1

CAMKKb = CAMKKb (Homo sapiens, UniProt Q96RR4); assay: Selectivity screen CAMKKb; assay type: biochemical; conditions: 1 µM inhibitor, mean
DYRK3 = DYRK3 (Homo sapiens, UniProt O43781); assay: Selectivity screen DYRK3; assay type: biochemical; conditions: 1 µM inhibitor, mean
Procedure: as §1

ABL = ABL (Homo sapiens, UniProt P00519); assay: Selectivity screen ABL; assay type: biochemical; conditions: 1 µM inhibitor, mean
Procedure: as §1

SmMLCK = SmMLCK (Homo sapiens, UniProt Q15746); assay: Selectivity screen SmMLCK; assay type: biochemical; conditions: 1 µM inhibitor, mean
Procedure: as §1

TTK = TTK (Homo sapiens, UniProt P33981); assay: Selectivity screen TTK; assay type: biochemical; conditions: 1 µM inhibitor, mean
Procedure: as §1

MNK2 = MNK2 (Homo sapiens, UniProt Q9HBH9); assay: Selectivity screen MNK2; assay type: biochemical; conditions: 1 µM inhibitor, mean
Procedure: as §1

TGFBR1 = TGFBR1 (Homo sapiens, UniProt P36897); assay: Selectivity screen TGFBR1; assay type: biochemical; conditions: 1 µM inhibitor, mean
Procedure: as §1

MST4 = MST4 (Homo sapiens, UniProt Q9P289); assay: Selectivity screen MST4; assay type: biochemical; conditions: 1 µM inhibitor, mean
Procedure: as §1

BTK = BTK (Homo sapiens, UniProt Q06187); assay: Selectivity screen BTK; assay type: biochemical; conditions: 1 µM inhibitor, mean
JNK3 = JNK3 (Homo sapiens, UniProt P53779); assay: Selectivity screen JNK3; assay type: biochemical; conditions: 1 µM inhibitor, mean
Procedure: as §1

[1] = tested on: IL-4 induced STAT6 phosphorylation in JAK3 Cys905Ser knockin BMDMs; assay: Inhibitor washout, IL-4 induced STAT6 phosphorylation, JAK3 Cys905Ser knockin BMDMs; assay type: cell-based, mouse; conditions: inhibitor 2 h, washed 3 times in PBS; 10 μM TL6-144, 100 μM PF-06651600
Procedure: To test this, cells were treated with a high concentration of inhibitor for 2 h before being washed 3 times in PBS and then incubated in media without inhibitor for 0.5 to 24 h. […] To confirm this was not the case, similar experiments were done in JAK3 Cys905Ser knockin cells.
Briefly, bone marrow was flushed in PBS from the femurs and tibias of mice. Cells were cultured on bacterial grade plastic for 7 days at 37 °C, 5% CO2. […]
Cells were lysed directly into SDS sample buffer and aliquots run on 10% polyacrylamide gels using standard methods[51]. Proteins were transferred onto nitrocellulose membranes, and specific proteins were detected by immunoblotting. […] Bands were detected using Clarity ECL reagents from BioRad and imaged on a Licor Odyssey Fc system. Quantification was carried out using Licor Image Studio software. After correction for the ERK1/2 levels to account for loading differences, percentage inhibition was calculated relative to the IL-4 stimulated condition.

[2] = tested on: IL-4 induced STAT6 phosphorylation in wild type BMDMs; assay: Inhibitor washout, IL-4 induced STAT6 phosphorylation, wild type BMDMs; assay type: cell-based, mouse; conditions: for inhibition of IL-4 induced STAT6 phosphorylation after inhibitor washout, wild type BMDMs: washed 3 times in PBS, IL-4 30 min to 2 h after washout, 10 μM TL6-144, 100 μM PF-06651600
Procedure: Covalent inhibitors would be predicted to have very slow off rates and therefore inhibition should remain even if the unbound inhibitors are washed out of the cells. To test this, cells were treated with a high concentration of inhibitor for 2 h before being washed 3 times in PBS and then incubated in media without inhibitor for 0.5 to 24 h. If the inhibitor acts via a non-covalent mechanism, inhibition would not be expected to remain following washout from the cells. Ruxolitinib is a non-covalent pan-JAK inhibitor that can inhibit multiple JAK-STAT pathways in macrophages. […] To confirm this was not the case, similar experiments were done in JAK3 Cys905Ser knockin cells. […] Similar experiments were also carried out with PF-06651600. […] As the level of inhibition was lower at 2 h post washout than 30 min the experiment was repeated to look at 4 and 24 h time points for the washout step.
Figure 4 Effect of inhibitor washout on JAK3 inhibition. BMDMs were isolated from wild type and JAK3 Cys905Ser knockin mice. […] The macrophages were then either stimulated with 10 ng/ml IL-4 for 30 min or washed 3 times in PBS and then incubated in media without inhibitor for the indicated times. The cells were then stimulated with IL-4 for 30 min and STAT6 phosphorylation determined by immunoblotting using levels of ERK1/2 as a loading control.
Bone marrow derived macrophages (BMDMs) were cultured as described. Briefly, bone marrow was flushed in PBS from the femurs and tibias of mice. Cells were cultured on bacterial grade plastic for 7 days at 37 °C, 5% CO2. Cells were then detached using Versene (Gibco), re-plated on tissue culture plastic in BMDM media (in DMEM supplemented with 10% heat inactivated FBS (Labtech), 2 mM L-glutamine, 100 U/ml penicillin G, 100 μg/ml streptomycin and 0.25 μg/ml amphotericin, 5 ng/ml M-CSF) and used within 48 h. Where indicated cells were stimulated with 10 ng/ml IL-4, 10 ng/ml GM-CSF, 10 ng/ml IL-10 or 10 ng/ml IFNβ. All cytokines were from PeproTech.
Cells were lysed directly into SDS sample buffer and aliquots run on 10% polyacrylamide gels using standard methods. Proteins were transferred onto nitrocellulose membranes, and specific proteins were detected by immunoblotting. Antibodies against tyrosine phosphorylated STATs were from Cell Signaling Technology (phospho-STAT1 #9167, phospho-STAT3 #9131, phospho-STAT5 #4322 and phospho-STAT6 #9361). The total ERK1/2 antibody used as a loading control was also from cell Signaling Technology (#4695). HRP-conjugated secondary antibodies were obtained from Pierce. Bands were detected using Clarity ECL reagents from BioRad and imaged on a Licor Odyssey Fc system. Quantification was carried out using Licor Image Studio software. After correction for the ERK1/2 levels to account for loading differences, percentage inhibition was calculated relative to the IL-4 stimulated condition. IC50 values were calculated using the same methods as for the in vitro IC50 values.

[3] = inhibitor 2 h, 0.5 μM Ruxolitinib

Sequence of SmMLCK (Q15746 923-1914): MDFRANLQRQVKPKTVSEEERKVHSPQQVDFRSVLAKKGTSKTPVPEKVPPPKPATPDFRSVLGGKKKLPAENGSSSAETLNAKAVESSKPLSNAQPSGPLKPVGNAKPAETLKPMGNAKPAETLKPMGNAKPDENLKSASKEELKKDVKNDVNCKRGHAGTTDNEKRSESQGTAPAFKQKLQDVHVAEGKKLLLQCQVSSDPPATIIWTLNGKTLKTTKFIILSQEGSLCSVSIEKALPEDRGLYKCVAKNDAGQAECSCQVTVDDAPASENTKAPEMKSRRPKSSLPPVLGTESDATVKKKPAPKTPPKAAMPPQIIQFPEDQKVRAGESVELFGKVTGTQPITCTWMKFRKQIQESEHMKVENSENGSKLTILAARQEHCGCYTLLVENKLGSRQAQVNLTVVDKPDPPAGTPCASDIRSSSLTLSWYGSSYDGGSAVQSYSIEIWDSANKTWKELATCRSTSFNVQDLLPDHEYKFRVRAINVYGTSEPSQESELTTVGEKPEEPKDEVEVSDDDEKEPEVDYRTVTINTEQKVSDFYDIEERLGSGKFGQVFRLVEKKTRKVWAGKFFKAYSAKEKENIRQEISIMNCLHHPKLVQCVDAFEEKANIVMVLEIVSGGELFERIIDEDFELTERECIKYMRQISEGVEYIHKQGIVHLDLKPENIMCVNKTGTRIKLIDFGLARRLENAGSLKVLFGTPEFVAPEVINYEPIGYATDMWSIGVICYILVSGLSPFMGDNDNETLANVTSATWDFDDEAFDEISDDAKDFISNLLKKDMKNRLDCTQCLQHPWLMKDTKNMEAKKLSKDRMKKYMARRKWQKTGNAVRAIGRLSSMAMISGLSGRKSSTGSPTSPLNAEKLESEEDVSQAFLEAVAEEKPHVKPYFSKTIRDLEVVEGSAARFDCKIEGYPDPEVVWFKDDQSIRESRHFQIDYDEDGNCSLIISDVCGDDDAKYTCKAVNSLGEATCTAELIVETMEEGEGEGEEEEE
Sequence of CSK (P41240 whole entry): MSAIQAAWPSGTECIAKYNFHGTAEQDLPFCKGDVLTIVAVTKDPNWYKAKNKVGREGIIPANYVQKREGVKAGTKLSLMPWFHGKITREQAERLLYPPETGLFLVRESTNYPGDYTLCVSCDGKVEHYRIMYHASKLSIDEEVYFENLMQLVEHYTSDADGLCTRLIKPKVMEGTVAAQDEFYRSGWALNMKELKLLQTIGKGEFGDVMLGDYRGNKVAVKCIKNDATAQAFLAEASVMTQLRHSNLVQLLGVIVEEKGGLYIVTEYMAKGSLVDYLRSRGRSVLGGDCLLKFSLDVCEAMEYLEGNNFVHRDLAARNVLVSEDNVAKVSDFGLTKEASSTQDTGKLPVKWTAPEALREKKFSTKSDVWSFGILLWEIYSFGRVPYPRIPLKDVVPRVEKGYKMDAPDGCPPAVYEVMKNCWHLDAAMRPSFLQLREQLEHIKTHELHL
Sequence of TIE2 (Q02763 23-1124): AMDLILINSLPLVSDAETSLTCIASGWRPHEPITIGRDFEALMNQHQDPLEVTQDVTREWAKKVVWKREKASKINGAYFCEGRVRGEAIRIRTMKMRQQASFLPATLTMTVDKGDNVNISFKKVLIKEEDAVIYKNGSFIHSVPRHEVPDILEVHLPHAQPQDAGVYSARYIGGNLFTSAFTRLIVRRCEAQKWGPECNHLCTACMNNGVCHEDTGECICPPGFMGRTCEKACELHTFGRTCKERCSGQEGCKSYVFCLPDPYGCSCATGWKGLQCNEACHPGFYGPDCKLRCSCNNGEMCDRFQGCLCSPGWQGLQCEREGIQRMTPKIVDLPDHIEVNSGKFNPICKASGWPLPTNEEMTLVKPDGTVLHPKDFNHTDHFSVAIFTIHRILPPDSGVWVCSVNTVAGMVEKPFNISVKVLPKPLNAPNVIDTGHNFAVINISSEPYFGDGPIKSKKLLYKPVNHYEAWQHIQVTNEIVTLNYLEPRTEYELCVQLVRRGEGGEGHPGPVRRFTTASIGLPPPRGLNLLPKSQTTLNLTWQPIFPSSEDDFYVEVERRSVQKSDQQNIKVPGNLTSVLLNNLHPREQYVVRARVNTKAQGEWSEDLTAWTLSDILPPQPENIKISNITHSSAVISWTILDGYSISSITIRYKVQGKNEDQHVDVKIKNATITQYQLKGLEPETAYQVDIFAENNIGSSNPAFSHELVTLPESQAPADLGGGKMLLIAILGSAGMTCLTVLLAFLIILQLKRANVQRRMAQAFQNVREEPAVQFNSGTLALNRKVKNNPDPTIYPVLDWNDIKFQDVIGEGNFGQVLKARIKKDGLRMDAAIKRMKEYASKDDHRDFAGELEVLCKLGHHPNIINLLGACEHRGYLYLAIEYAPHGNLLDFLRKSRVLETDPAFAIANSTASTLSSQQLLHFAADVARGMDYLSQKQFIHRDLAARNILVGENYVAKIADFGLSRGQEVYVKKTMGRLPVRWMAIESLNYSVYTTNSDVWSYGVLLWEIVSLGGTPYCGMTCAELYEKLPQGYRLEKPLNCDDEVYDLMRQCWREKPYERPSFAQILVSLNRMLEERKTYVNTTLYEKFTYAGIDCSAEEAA
Sequence of CAMKKb (Q96RR4 whole entry): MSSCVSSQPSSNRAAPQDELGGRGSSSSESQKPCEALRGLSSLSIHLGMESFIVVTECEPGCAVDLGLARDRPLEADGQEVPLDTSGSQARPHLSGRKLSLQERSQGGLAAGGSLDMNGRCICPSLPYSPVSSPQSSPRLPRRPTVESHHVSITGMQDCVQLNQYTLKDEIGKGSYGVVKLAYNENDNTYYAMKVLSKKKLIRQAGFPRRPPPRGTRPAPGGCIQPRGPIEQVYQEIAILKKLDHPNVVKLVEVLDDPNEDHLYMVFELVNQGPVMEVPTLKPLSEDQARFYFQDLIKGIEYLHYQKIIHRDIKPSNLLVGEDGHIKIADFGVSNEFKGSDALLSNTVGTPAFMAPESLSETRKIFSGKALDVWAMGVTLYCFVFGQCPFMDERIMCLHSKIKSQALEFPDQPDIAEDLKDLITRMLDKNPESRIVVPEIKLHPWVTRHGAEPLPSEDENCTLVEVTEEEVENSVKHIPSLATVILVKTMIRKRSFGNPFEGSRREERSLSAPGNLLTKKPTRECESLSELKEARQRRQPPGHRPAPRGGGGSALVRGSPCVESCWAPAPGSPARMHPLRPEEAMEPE
Sequence of BTK (Q06187 whole entry): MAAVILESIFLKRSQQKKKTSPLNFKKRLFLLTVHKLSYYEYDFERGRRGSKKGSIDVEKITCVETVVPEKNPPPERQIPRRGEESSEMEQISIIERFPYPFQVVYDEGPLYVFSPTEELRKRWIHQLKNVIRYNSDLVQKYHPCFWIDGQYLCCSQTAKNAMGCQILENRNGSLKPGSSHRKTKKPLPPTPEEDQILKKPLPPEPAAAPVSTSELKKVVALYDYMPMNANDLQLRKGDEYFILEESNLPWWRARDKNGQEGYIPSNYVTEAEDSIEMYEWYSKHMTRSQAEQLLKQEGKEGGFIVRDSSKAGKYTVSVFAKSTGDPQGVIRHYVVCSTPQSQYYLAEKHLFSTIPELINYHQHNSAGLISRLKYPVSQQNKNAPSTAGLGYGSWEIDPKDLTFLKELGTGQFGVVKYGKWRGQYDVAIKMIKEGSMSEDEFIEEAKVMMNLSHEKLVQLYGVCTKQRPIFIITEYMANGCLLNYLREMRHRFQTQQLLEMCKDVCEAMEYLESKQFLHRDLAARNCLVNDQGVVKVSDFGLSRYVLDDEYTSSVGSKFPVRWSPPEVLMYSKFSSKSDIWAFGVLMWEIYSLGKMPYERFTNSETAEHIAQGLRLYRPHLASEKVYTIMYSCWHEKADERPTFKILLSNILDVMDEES
Sequence of TGFBR1 (P36897 34-503): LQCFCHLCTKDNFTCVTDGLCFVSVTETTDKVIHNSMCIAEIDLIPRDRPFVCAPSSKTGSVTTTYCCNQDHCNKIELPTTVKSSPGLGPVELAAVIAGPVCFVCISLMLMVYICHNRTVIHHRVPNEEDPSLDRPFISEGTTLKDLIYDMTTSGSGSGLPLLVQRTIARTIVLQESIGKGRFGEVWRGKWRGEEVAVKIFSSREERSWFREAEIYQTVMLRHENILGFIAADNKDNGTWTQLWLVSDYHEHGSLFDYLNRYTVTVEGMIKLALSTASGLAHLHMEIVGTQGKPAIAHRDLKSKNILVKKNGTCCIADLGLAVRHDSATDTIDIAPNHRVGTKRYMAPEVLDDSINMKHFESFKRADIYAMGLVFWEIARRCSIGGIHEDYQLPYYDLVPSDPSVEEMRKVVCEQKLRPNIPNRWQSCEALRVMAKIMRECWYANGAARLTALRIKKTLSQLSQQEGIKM
Sequence of MST4 (Q9P289 whole entry): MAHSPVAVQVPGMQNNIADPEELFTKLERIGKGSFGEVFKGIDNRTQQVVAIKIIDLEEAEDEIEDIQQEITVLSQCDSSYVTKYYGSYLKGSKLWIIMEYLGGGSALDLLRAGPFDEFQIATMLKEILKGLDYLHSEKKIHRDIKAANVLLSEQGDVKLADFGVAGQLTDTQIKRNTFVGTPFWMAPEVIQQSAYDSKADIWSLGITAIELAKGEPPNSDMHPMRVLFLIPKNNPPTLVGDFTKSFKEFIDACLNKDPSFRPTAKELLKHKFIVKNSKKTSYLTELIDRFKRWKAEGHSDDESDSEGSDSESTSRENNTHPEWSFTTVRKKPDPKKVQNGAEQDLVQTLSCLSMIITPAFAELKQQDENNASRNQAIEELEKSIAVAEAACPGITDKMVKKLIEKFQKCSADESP
Sequence of CAMK1 (Q14012 whole entry): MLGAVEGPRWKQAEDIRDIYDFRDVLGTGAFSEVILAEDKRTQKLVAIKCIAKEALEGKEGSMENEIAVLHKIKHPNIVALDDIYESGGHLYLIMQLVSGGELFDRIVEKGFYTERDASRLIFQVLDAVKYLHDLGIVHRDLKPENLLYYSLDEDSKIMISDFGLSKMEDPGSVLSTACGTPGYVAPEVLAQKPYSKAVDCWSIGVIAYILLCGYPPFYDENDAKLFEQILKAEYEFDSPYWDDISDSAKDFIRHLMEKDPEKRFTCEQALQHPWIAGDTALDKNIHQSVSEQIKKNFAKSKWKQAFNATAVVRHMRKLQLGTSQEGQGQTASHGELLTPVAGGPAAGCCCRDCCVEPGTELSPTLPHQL

SMILES | activity remaining in the presence of the inhibitor: Src (Src) | activity remaining in the presence of the inhibitor: MARK3 (MARK3) | activity remaining in the presence of the inhibitor: CAMK1 (CAMK1) | activity remaining in the presence of the inhibitor: TIE2 (TIE2) | activity remaining in the presence of the inhibitor: IRR (IRR) | activity remaining in the presence of the inhibitor: CSK (CSK) | activity remaining in the presence of the inhibitor: TTBK1 (TTBK1) | activity remaining in the presence of the inhibitor: CAMKKb (CAMKKb) | activity remaining in the presence of the inhibitor: DYRK3 (DYRK3) | activity remaining in the presence of the inhibitor: ABL (ABL) | activity remaining in the presence of the inhibitor: SmMLCK (SmMLCK) | activity remaining in the presence of the inhibitor: TTK (TTK) | activity remaining in the presence of the inhibitor: MNK2 (MNK2) | activity remaining in the presence of the inhibitor: TGFBR1 (TGFBR1) | activity remaining in the presence of the inhibitor: MST4 (MST4) | activity remaining in the presence of the inhibitor: BTK (BTK) | activity remaining in the presence of the inhibitor: JNK3 (JNK3) | inhibition of IL-4 induced STAT6 phosphorylation after inhibitor washout, JAK3 Cys905Ser knockin BMDMs [1] | inhibition of IL-4 induced STAT6 phosphorylation after inhibitor washout, wild type BMDMs [2, 3] | other results
C=CC(=O)Nc1cccc(CNc2nc(Nc3ccc(N4CCOCC4)cc3)ncc2Cl)c1 [TL8-52] | 53 | 21 | 97 | 116 | 75 | 73 | 100 | 22 | 95 | 89 | 98 | 49 | 66 | 104 | 96 | 44 | 69 | – | – | –
C=CC(=O)Nc1cccc(CNc2nc(Nc3ccc(N4CCN(C)CC4)cc3OC)ncc2Cl)c1 [TL6-144] | 74 | 48 | 68 | 87 | 56 | 113 | 80 | 6 | 95 | 87 | 62 | 96 | 70 | 83 | 107 | 37 | 87 | complete loss of inhibition | much lower than in control cells | block of IL-4 induced STAT6 phosphorylation without washout, wild type BMDMs ([2]; inhibitor 2 h, no washout, 0.5 μM Ruxolitinib, 10 μM TL6-144): completely blocked
C=CC(=O)N1C[C@H](Nc2ncnc3[nH]ccc23)CC[C@@H]1C [PF-06651600, 1-((2S,5R)-5-((7H-Pyrrolo[2,3-d]pyrimidin-4-yl)amino)-2-methylpiperidin-1-yl)prop-2-en-1-one, reference compound] | – | – | – | – | – | – | – | – | – | – | – | – | – | – | – | – | – | not retained at any time post washout | retained | inhibition of IL-4 induced STAT6 phosphorylation 24 h after inhibitor washout, wild type BMDMs ([2]; 100 μM PF-06651600 for 2 h, washout, 24 h time point): Some inhibition was retained

Source: paper PMC8115619, “Generation of a chemical genetic model for JAK3” (Scientific Reports, 2021)
